Test results from patent publication US11466028B2, “Fused 1,4-oxazepines as BET protein degraders” (THE REGENTS OF THE UNIVERSITY OF MICHIGAN, priority 2016, dated 2022).

What was measured:
Format in all cases: cell-based
MDA-MB-231 = assay: CellTiter-Glo cell growth inhibition, MDA-MB-231; settings: Homo sapiens, MDA-MB-231, 96 h, 4 days, Table 4
Procedure: (§1) Cell growth inhibitory activity of representative Compounds of the Disclosure was determined using the CellTiter-Glo® Luminescent Cell Viability Assay. Cells were seeded in 384-well white opaque cell culture plates at a density of 2,000 cells/well with serially diluted compounds and incubated at 37° C. in an atmosphere of 95% air and 5% CO2 for 4 days. Cell viability was determined using the CellTiter-Glo® Luminescent Cell Viability Assay Kit (Promega, Madison, Wis.) according to the manufacture's instruction. Briefly, a volume of CellTiter-Glo® Reagent equal to the volume of cell culture medium was added to each well, and then the plates were incubated at room temperature for 10-20 minutes. The luminescent signal was measured using a Tecan Infinite M1000 multimode microplate reader (Tecan, Morrisville, N.C.). The half maximal inhibitory concentration (IC50) was calculated using the GraphPad Prism 5 software (GraphPad Software, La Jolla, Calif.).

RS4;11 = assay: CellTiter-Glo cell growth inhibition, RS4;11; settings: Homo sapiens, RS4-11, 96 h, 4 days, Table 4, read-out: RS-4, 11 IC50
Procedure: as §1
(§2) Cpd. Nos. 18 and 19 were tested in various leukemia cell lines using the CellTiter-Glo® Luminescent Cell Viability Assay as described in Example 35.

MOLM-13 = assay: CellTiter-Glo cell growth inhibition, MOLM-13; settings: Homo sapiens, MOLM-13, 96 h, 4 days, Table 4, read-out: MOLM-13 IC50
Procedure: as §1, §2

SMILES	IC50 (MDA-MB-231) [nM]	IC50 (RS4;11) [nM]	IC50 (MOLM-13) [nM]
Cc1nnc2n1-c1sc(C#Cc3cnn(CCCCOc4cccc5c4C(=O)N(C4CCC(=O)NC4=O)C5=O)c3)c(Cc3ccccc3)c1COC2 (stereo not drawn) [Cpd. No. 45, 4-(4-(4-((3-benzyl-9-methyl-4H,6H-thieno[2,3-e][1,2,4]triazolo[3,4-c][1,4]oxazepin-2-yl)ethynyl)-1H-pyrazol-1-yl)butoxy)-2-(2,6-dioxopiperidin-3-yl) isoindoline-1,3-dione]	3.2	< 0.1	3.2
Cc1nnc2n1-c1sc(C#Cc3cn(CCCCNc4cccc5c4CN(C4CCC(=O)NC4=O)C5=O)cn3)c(Cc3ccccc3)c1CO[C@H]2C (stereo partly drawn) [Cpd. No. 13, 3-(4-((4-(4-(((S)-3-benzyl-6,9-dimethyl-4H,6H-thieno[2,3-e][1,2,4]triazolo[3,4-c][1,4]oxazepin-2-yl)ethynyl)-1H-imidazol-1-yl)butyl)amino)-1-oxoisoindolin-2-yl)piperidine-2,6-dione]	58	1.8	20
Cc1nnc2n1-c1sc(C#Cc3cnn(CCCNc4cccc5c4C(=O)N(C4CCC(=O)NC4=O)C5=O)c3)c(Cc3ccccc3)c1CO[C@H]2C (stereo partly drawn) [Cpd. No. 10, 4-((3-(4-(((S)-3-benzyl-6,9-dimethyl-4H,6H-thieno[2,3-e][1,2,4]triazolo[3,4-c][1,4]oxazepin-2-yl)ethynyl)-1H-pyrazol-1-yl)propyl)amino)-2-(2,6-dioxopiperidin-3-yl)isoindoline-1,3-dione]	34		2.6
Cc1nnc2n1-c1sc(C#CCOCCNc3cccc4c3C(=O)N(C3CCC(=O)NC3=O)C4=O)c(Cc3ccccc3)c1CO[C@H]2C (stereo partly drawn) [Cpd. No. 1, 4-((2-((3-((S)-3-benzyl-6,9-dimethyl-4H,6H-thieno[2,3-e][1,2,4]triazolo[3,4-c][1,4]oxazepin-2-yl)prop-2-yn-1-yl)oxy)ethyl)amino)-2-(2,6-dioxopiperidin-3-yl) isoindoline-1,3-dione]	1700		804
Cc1nnc2n1-c1sc(C#Cc3cn(CCCC#Cc4cccc5c4CN(C4CCC(=O)NC4=O)C5=O)cn3)c(Cc3ccccc3)c1COC2 (stereo not drawn) [Cpd. No. 50, 3-(4-(5-(4-((3-benzyl-9-methyl-4H,6H-thieno[2,3-e][1,2,4]triazolo[3,4-c][1,4]oxazepin-2-yl)ethynyl)-1H-imidazol-1-yl)pent-1-yn-1-yl)-1-oxoisoindolin-2-yl)piperidine-2,6-dione]	> 100	> 1	> 10
Cc1nnc2n1-c1sc(C#Cc3cn(CCCC#Cc4cccc5c4CN(C4CCC(=O)NC4=O)C5=O)cn3)c(Cc3ccccc3)c1CO[C@H]2C (stereo partly drawn) [Cpd. No. 20, 3-(4-(5-(4-(((S)-3-benzyl-6,9-dimethyl-4H,6H-thieno[2,3-e][1,2,4]triazolo[3,4-c][1,4]oxazepin-2-yl)ethynyl)-1H-imidazol-1-yl)pent-1-yn-1-yl)-1-oxoisoindolin-2-yl)piperidine-2,6-dione]	16	0.7	3.8
Cc1nnc2n1-c1sc(C#CCOCCOCCOCCOCCNc3cccc4c3C(=O)N(C3CCC(=O)NC3=O)C4=O)c(Cc3ccccc3)c1CO[C@H]2C (stereo partly drawn) [Cpd. No. 5, 4-((15-((S)-3-benzyl-6,9-dimethyl-4H,6H-thieno[2,3-e][1,2,4]triazolo[3,4-c][1,4]oxazepin-2-yl)-3,6,9,12-tetraoxapentadec-14-yn-1-yl)amino)-2-(2,6-dioxopiperidin-3-yl)isoindoline-1,3-dione]	6.1		0.7
Cc1nnc2n1-c1sc(C#Cc3ccc(CCCCNc4cc(F)cc5c4CN(C4CCC(=O)NC4=O)C5=O)nc3)c(Cc3ccccc3)c1COC2 (stereo not drawn) [Cpd. No. 47, 3-(4-((4-(5-((3-benzyl-9-methyl-4H,6H-thieno[2,3-e][1,2,4]triazolo[3,4-c][1,4]oxazepin-2-yl)ethynyl)pyridin-2-yl)butyl)amino)-6-fluoro-1-oxoisoindolin-2-yl)piperidine-2,6-dione]	2.3	< 0.1	1.8
Cc1nnc2n1-c1sc(C#Cc3cnn(CCCC#Cc4cccc5c4C(=O)N(C4CCC(=O)NC4=O)C5=O)c3)c(Cc3ccccc3)c1COC2 (stereo not drawn) [Cpd. No. 49, 4-(5-(4-((3-benzyl-9-methyl-4H,6H-thieno[2,3-e][1,2,4]triazolo[3,4-c][1,4]oxazepin-2-yl)ethynyl)-1H-pyrazol-1-yl)pent-1-yn-1-yl)-2-(2,6-dioxopiperidin-3-yl)isoindoline-1,3-dione]	5.5	0.56	9.6
Cc1nnc2n1-c1sc(C#Cc3cnn(CCNc4cccc5c4C(=O)N(C4CCC(=O)NC4=O)C5=O)c3)c(Cc3ccccc3)c1CO[C@H]2C (stereo partly drawn) [Cpd. No. 6, 4-((2-(4-(((S)-3-benzyl-6,9-dimethyl-4H,6H-thieno[2,3-e][1,2,4]triazolo[3,4-c][1,4]oxazepin-2-yl)ethynyl)-1H-pyrazol-1-yl)ethyl)amino)-2-(2,6-dioxopiperidin-3-yl)isoindoline-1,3-dione]	64		60
Cc1nnc2n1-c1sc(C#Cc3cnn(CCOCCNc4cccc5c4C(=O)N(C4CCC(=O)NC4=O)C5=O)c3)c(Cc3ccccc3)c1CO[C@H]2C (stereo partly drawn) [Cpd. No. 9, 4-((2-(2-(4-(((S)-3-benzyl-6,9-dimethyl-4H,6H-thieno[2,3-e][1,2,4]triazolo[3,4-c][1,4]oxazepin-2-yl)ethynyl)-1H-pyrazol-1-yl)ethoxy)ethyl)amino)-2-(2,6-dioxopiperidin-3-yl)isoindoline-1,3-dione]	4.7		1.1
Cc1nnc2n1-c1sc(C#CCOCCOCCNc3cccc4c3C(=O)N(C3CCC(=O)NC3=O)C4=O)c(Cc3ccccc3)c1CO[C@H]2C (stereo partly drawn) [Cpd. No. 3, 4-((2-(2-((3-((S)-3-benzyl-6,9-dimethyl-4H,6H-thieno[2,3-e][1,2,4]triazolo[3,4-c][1,4]oxazepin-2-yl)prop-2-yn-1-yl)oxy)ethoxy)ethyl)amino)-2-(2,6-dioxopiperidin-3-yl)isoindoline-1,3-dione]	49		2.6
Cc1nnc2n1-c1sc(C#CCOCCOCCOc3cccc4c3C(=O)N(C3CCC(=O)NC3=O)C4=O)c(Cc3ccccc3)c1CO[C@H]2C (stereo partly drawn) [Cpd. No. 2, 4-(2-(2-((3-((S)-3-benzyl-6,9-dimethyl-4H,6H-thieno-[2,3-e][1,2,4]triazolo[3,4-c][1,4]oxazepin-2-yl)prop-2-yn-1-yl)oxy)ethoxy)ethoxy)-2-(2,6-dioxopiperidin-3-yl)isoindoline-1,3-dione]	223		34.6
Cc1nnc2n1-c1sc(C#CCOCCOCCOCCNc3cccc4c3C(=O)N(C3CCC(=O)NC3=O)C4=O)c(Cc3ccccc3)c1CO[C@H]2C (stereo partly drawn) [Cpd. No. 4, 4-((2-(2-(2-((3-((S)-3-benzyl-6,9-dimethyl-4H,6H-thieno[2,3-e][1,2,4]triazolo[3,4-c][1,4]oxazepin-2-yl)prop-2-yn-1-yl)oxy)ethoxy)ethoxy)ethyl)amino)-2-(2,6-dioxopiperidin-3-yl)isoindoline-1,3-dione]	12.8		0.8
Cc1nnc2n1-c1sc(C#Cc3cnn(CCCC#Cc4cccc5c4C(=O)N(C4CCC(=O)NC4=O)C5=O)c3)c(Cc3ccccc3)c1CO[C@H]2C (stereo partly drawn) [Cpd. No. 14, 4-(5-(4-(((S)-3-benzyl-6,9-dimethyl-4H,6H-thieno[2,3-e][1,2,4]triazolo[3,4-c][1,4]oxazepin-2-yl)ethynyl)-1H-pyrazol-1-yl)pent-1-yn-1-yl)-2-(2,6-dioxopiperidin-3-yl)isoindoline-1,3-dione]	9.3	0.43	8.7
Cc1nnc2n1-c1sc(C#Cc3ccc(CNc4cccc5c4C(=O)N(C4CCC(=O)NC4=O)C5=O)nc3)c(Cc3ccccc3)c1CO[C@H]2C (stereo partly drawn) [Cpd. No. 8, 4-(((5-(((S)-3-benzyl-6,9-dimethyl-4H,6H-thieno[2,3-e][1,2,4]triazolo[3,4-c][1,4]oxazepin-2-yl)ethynyl)pyridin-2-yl)methyl)amino)-2-(2,6-dioxopiperidin-3-yl) isoindoline-1,3-dione]	1490		118
Cc1nnc2n1-c1sc(C#Cc3cn(CCCC#Cc4cccc5c4C(=O)N(C4CCC(=O)NC4=O)C5=O)cn3)c(Cc3ccccc3)c1CO[C@H]2C (stereo partly drawn) [compound 21, 4-(5-(4-(((S)-3-benzyl-6,9-dimethyl-4H,6H-thieno[2,3-e][1,2,4]triazolo[3,4-c][1,4]oxazepin-2-yl)ethynyl)-1H-imidazol-1-yl)pent-1-yn-1-yl)-2-(2,6-dioxopiperidin-3-yl)isoindoline-1,3-dione]	60	3	15.7
Cc1nnc2n1-c1sc(C#Cc3ccc(CCCCNc4cccc5c4CN(C4CCC(=O)NC4=O)C5=O)nc3)c(Cc3ccccc3)c1COC2 (stereo not drawn) [Cpd. No. 46, 3-(4-((4-(5-((3-benzyl-9-methyl-4H,6H-thieno[2,3-e][1,2,4]triazolo[3,4-c][1,4]oxazepin-2-yl)ethynyl)pyridin-2-yl)butyl)amino)-1-oxoisoindolin-2-yl) piperidine-2,6-dione]	2.4	< 0.1	2.8
Cc1nnc2n1-c1sc(C#Cc3cnc(CCCC#Cc4cccc5c4CN(C4CCC(=O)NC4=O)C5=O)n3C)c(Cc3ccccc3)c1CO[C@H]2C (stereo partly drawn) [Cpd. No. 15, 3-(4-(5-(5-(((S)-3-benzyl-6,9-dimethyl-4H,6H-thieno[2,3-e][1,2,4]triazolo[3,4-c][1,4]oxazepin-2-yl)ethynyl)-1-methyl-1H-imidazol-2-yl)pent-1-yn-1-yl)-1-oxoisoindolin-2-yl)piperidine-2,6-dione]	25	0.2	7.5
